Measurements taken from US4997926A, “Deaminase-stable anti-retroviral 2-halo-2',3'-dideoxy” (Scripps Clinic and Research Foundation, priority 1987, dated 1991).

Columns and labels:
CEM T lymphoblasts = assay: in vitro; type: in vitro ADME, human
Description: (§1) Under the same condition, only about 2 percent of [2',3'-^3 H]-2'3'-dideoxyadenosine remained in the medium after 4 hours culture.
(§2) ^1 Human CEM T lymphoblasts at a density of 2 × 10^7
(§3) cells/ml were incubated for 4 hours at 37 degrees C. with either 3 uM
(§4) [8^3 H2-chloro- 2',3dideoxyadenosine, or 2 uM [2',3^3
(§5) H2',3dideoxyadenosine or 2 uM [2',3^3 H2',3dideoxyinosine. Then the
(§6) dideoxynucleosides in the cultures were quantitated after separation by
(§7) HPLC. In these studies, the intracellular dideoxynucleotide content after
(§8) The human T lymphoblastoid cell line, CCRF-CEM, and mutants deficient in either deoxycytidine kinase (clone AraC-8D), or deoxycytidine kinase plus adenosine kinase (clone AraC-8DM10-5) were obtained and propagated as described previously [Foley et al., (1965) Cancer, 18:552-529 and Hershfield et al., (1982) J. Biol. Chem., 257:6380-6386]. For metabolic studies, the cells were cultured in RPMI 1640 medium supplemented with 2 mM L-glutamine and 10 percent fetal bovine serum at a density of 2×10^7 cells/ml in the presence of radiolabelled dideoxynucleosides, as indicated earlier. Some cultures were pre-incubatedfor 30 minutes either with 5 uM 2'-deoxycoformycin or 50 uM coformycin. After 4 hours of incubation the cells were harvested by centrifugation.
(§9) The radioactive compounds in the culture medium were fractionated by thin layer chromatography. Ten microliter (ul) aliquots of medium were spotted directly on cellulose plates and developed with 1 M ammonium acetate pH 7.4. […] The respective spots were cut out and radioactivity was determined by liquid scintillation spectrometry. The identities of the spots were also confirmed by cochromatography of the radioactive counts with authentic compounds on a C18 uBondapak column, that was eluted as described above.

in vitro = in vitro ADME, human; conditions: human, cem cell culture medium
Description: as §1, §2, §3, §4, §5, §6, §7, §8, §9

SMILES	Catabolism (CEM T lymphoblasts; Addition none, 4 hours, 37 degrees C., 2-3 uM)	deamination by CEM cells (CEM T lymphoblasts; radiolabelled compound, medium of CEM cell cultures)	remaining at 4 h, 2 µM (in vitro)
Nc1nc(Cl)nc2c1ncn2[C@H]1CC[C@@H](CO)O1 [2-chloro-2',3'-dideoxyadenosine]	40 pmols/hr 10^8 cells	did not significantly deaminate	–
Nc1ncnc2c1ncn2[C@H]1CC[C@@H](CO)O1 [2',3'-dideoxyadenosine, reference compound]	–	–	~2%
